Here are results for one compound from patent US20250170136A1, “1,2,4-TRIAZIN-3(2H)-ONE COMPOUNDS FOR THE TREATMENT OF HYPERPROLIFERATIVE DISEASES” (BAYER AKTIENGESELLSCHAFT, priority 2019, published 2025).

Marks after values point to notes of the source that are not given here.

The target in one series is human full length PDE3B (Homo sapiens (Human), UniProt Q13370). The experiment in a line: PDE3B enzyme inhibition (3H-cAMP Scintillation Proximity Assay). As to conditions: Sf9 cell extract, 60 min room temperature. The format is biochemical. As to the method: The commercially available 3H-cAMP Scintillation Proximity Assay (SPA, Perkin Elmer) system was used for enzyme inhibition studies. For the determination of the in vitro effect of example compounds on the PDE3B reactions 2 μl of the respective example compound solution in DMSO (serial dilutions) were placed in wells of microtiter plates (Isoplate-96/200W; Perkin Elmer). 50 μl of a dilution of PDE3B cell extract from Sf9 cells overexpressing human full length PDE3B (SB Drug Discovery, UK) in buffer A (50 mM Tris/HCl pH 7.5, 8.3 mM MgCl2, 1.7 mM EDTA, 0.2% BSA) was added. The dilution of the PDE3B cell extract was chosen such that the reaction kinetics was linear and less than 70% of the substrate was consumed (typical dilution 1:6000). The reaction was started by addition of 50 μl (0.025 μCi) of 1:2000 in buffer A w/o BSA diluted substrate [8-3H]adenosine 3′, 5′-cyclic phosphate (1 μCi/μl; Perkin Elmer). After incubation at room temperature for 60 min, the reaction was stopped by addition of 25 μl of a suspension containing 18 mg/ml yttrium scintillation proximity beads (Perkin Elmer) in water. The microtiter plates were sealed and measured in a Microbeta scintillation counter (PerkinElmer Wallac). IC50 values were determined from sigmoidal curves by plotting percentage PDE3B activity vs log compound concentration.
A general note: In a scintillation proximity assay essentially only radioactivity close to the scintillant gives light.

Series [1] in a line: In vivo pharmacokinetics in dogs (i.v.). As to conditions: Dog/female/Beagle, 0.3 mg/kg i.v., PEG400 50% + Water 40% + EtOH 10%. The procedure: (§1) For in vivo pharmacokinetic experiments test compounds were administered to female CD-1 mice, male Wistar rats, Beagle dogs or Cynomolgus monkeys intravenously at doses of 0.3 to 1 mg/kg formulated as solutions using solubilizers such as PEG400 in well-tolerated amounts.
(§2) Studies may also have been performed as cassette administrations of up to 3 compounds given together simultaneously in low doses.
(§3) For pharmacokinetics after intravenous administration test compounds were given in the female mice and male rat as i.v. bolus and in dogs and monkeys as short term infusion (15 min). Blood samples were taken e.g. at 2 min, 8 min, 15 min, 30 min, 45 min, 1 h, 2 h, 4 h, 6 h, 8 h and 24 h after dosing from the vena jugularis (mouse, rat) or vena saphena (dog, monkey). […] PK parameters were calculated by non-compartmental analysis using a PK calculation software (e.g. Phoenix WinNonlin®, Certara USA, Inc.).
(§4) PK parameters derived from concentration-time profiles after i.v.: CLplasma (in L/kg/h): Total plasma clearance of test compound calculated by dose (in μg/kg) divided by area under the concentration-time curve from t=0 h to infinity (extrapolated) (AUCinf in μg*h/L); CLblood: Total blood clearance of test compound: CLplasma*Cp/Cb (in L/kg/h) with Cp/Cb being the ratio of test compound concentrations in plasma and blood. […]

Series [2] can be described thus: In vivo pharmacokinetics in mice (i.v.). To be noted: Mouse/female/CD1, 0.5 mg/kg i.v., PEG400 60% + Water 35% + EtOH 5%. Details: species or system female CD-1 mice. The procedure: as §1, §2, §3, §4
Series [3] can be described thus: In vivo pharmacokinetics in rats (i.v.). As to conditions: Rat/male/Wistar, 0.5 mg/kg i.v., Plasma 95% + EtOH 4% + DMSO 1%. The procedure: as §1, §2, §3, §4
For series [4], the system named is IGR-37 melanoma xenograft. Kind of series: In vivo xenotransplantation model of human cancer. The arrangement: species or system mice. As to conditions: for T/C: IGR-37 Melanoma, mean final tumor weight treatment vs control, study end. An excerpt:
The anti-tumor activity of Example 1, ((5S)-5-methyl-6-{3-(trifluoromethyl)-4-[3-(trifluoromethyl)-1H-pyrazol-1-yl]phenyl}-4,5-dihydro-1,2,4-triazin-3(2H)-one), was examined in murine xenotransplantation models of human cancer. For this purpose, mice were implanted subcutaneously with tumor cells. At a mean tumor size of 20-40 mm^2 animals were randomized into treatment and control groups (at least n=10 animals/group) and treatment started with vehicle only or Example 1 (formulation: 90% PEG400/10% Ethanol; application route: per os (“p.o.”), orally). The oral application volume was 10 ml/kg. In the case of twice daily treatments, the time interval between two applications per day was 6-7 h. The tumor size and the body weight were determined at least weekly. The tumor area was detected by means of an electronic caliper [length (mm)×width (mm)]. The experiment was ended when the tumors of the vehicle control reached the pre-determined ethical endpoint based on German and European animal welfare regulations. In vivo anti-tumor efficacy is presented as T/C ratio at study end (Treatment/Control; mean tumor area or weight of treatment group/mean tumor area or weight of control group) in Table 7. A compound having a T/C below 0.5 is defined as active (i.e., effective). Statistical analysis was assessed using SigmaStat software. A one-way analysis of variance was performed and differences to the control were compared by a pair-wise comparison procedure (Dunn's method).

Chain of human full length PDE3B (Q13370 whole entry): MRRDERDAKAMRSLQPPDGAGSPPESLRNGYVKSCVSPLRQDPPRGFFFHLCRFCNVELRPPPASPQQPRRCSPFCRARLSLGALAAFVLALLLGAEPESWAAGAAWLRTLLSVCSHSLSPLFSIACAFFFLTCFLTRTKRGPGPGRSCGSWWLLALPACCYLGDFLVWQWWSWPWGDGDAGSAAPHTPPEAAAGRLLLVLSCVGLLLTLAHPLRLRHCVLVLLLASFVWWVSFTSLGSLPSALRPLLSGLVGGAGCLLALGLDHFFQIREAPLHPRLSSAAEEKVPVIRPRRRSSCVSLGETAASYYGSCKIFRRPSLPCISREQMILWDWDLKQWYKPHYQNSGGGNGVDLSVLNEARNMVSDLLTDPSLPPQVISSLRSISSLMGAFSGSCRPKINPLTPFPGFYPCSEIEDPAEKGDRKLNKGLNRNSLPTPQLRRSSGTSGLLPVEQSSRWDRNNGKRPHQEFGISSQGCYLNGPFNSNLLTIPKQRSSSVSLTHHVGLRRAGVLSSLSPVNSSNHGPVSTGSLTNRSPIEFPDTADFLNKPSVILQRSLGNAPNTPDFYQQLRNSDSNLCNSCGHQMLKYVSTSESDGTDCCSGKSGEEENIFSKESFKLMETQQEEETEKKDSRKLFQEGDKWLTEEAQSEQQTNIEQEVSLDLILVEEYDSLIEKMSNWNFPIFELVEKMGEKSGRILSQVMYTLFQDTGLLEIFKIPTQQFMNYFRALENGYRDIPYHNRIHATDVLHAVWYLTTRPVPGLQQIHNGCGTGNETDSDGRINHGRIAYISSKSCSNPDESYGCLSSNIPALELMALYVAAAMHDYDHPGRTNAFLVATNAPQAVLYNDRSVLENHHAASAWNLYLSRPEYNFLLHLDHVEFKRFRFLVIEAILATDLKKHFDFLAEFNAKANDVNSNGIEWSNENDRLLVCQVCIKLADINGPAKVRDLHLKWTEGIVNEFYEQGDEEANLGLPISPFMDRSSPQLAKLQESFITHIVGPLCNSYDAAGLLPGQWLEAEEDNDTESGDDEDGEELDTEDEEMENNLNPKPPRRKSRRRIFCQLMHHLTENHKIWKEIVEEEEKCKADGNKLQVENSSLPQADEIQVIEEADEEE

`C[C@@H]1NC(=O)NN=C1c1ccc(-n2ccc(C(F)(F)F)n2)c(C(F)(F)F)c1` [Example 1, (5S)-5-methyl-6-{3-(trifluoromethyl)-4-[3-(trifluoromethyl)-1H-pyrazol-1-yl]phenyl}-4,5-dihydro-1,2,4-triazin-3(2H)-one] had an IC50 at human full length PDE3B of 0.081 µM. Besides, the results for the CLblood in series [1], in series [2] and in series [3] were 4.5 mL/min/kg, 3 mL/min/kg and 3.67 mL/min/kg, respectively. The T/C is given as 0.06 * in series [4] (1 mg/kg 2QD p.o.), 0.06 * in series [4] (2 mg/kg 2QD p.o.), 0.06 * in series [4] (4 mg/kg 2QD p.o.) and 0.07 * in series [4] (4 mg/kg QD p.o.). Moreover, in series [4] (xenograft model of human tumors, melanoma, monotherapy), the “anti-tumor efficacy (reduction of tumor area)” value is listed as “effective in reduction of tumor area in melanoma”.

Usually IC50 stands for the concentration that gives 50% inhibition. Higher therefore signals lower potency.
